Calls of active or inactive are those of the source. No cut-off for these calls is given here.
Assays:
Mus musculus [1] = experiment: In vivo PROTAC activity at CRBN/MNK1 in human MV4-11 cells xenografted in nude female NSG mouse assessed as reduction in phosphorylated eIF4E level at 20 mg/kg, ip qd administrated for 16 days by Western blot analysis; type: functional, organism-based; details: time 16.0 day
Mus musculus [2] = experiment: In vivo PROTAC activity at CRBN/MNK1 in human MV4-11 cells xenografted in nude female NSG mouse assessed as induction of MNK1 degradation at 20 mg/kg, ip qd administrated for 16 days by Western blot analysis; type: functional, organism-based; details: time 16.0 day
MV4-11 [3] = experiment: Downregulation of SUFU expression level in human MV4-11 cells at 300 nM incubated for 24 hrs by DIA-based quantitative proteomics analysis; type: functional, cell-based
MV4-11 [4] = experiment: Effect on IKZF1 expression in human MV4-11 cells at 10 to 1000 nM incubated for 24 hrs by immunoblot analysis; type: functional, cell-based; details: dose 10-1000 nM
MV4-11 [5] = experiment: Upregulation of cell cycle regulation related protein expression in human MV4-11 cells by GO analysis; type: functional, cell-based
MV4-11 [6] = experiment: Upregulation of G2/M transition pathway related protein expression in human MV4-11 cells by GO analysis; type: functional, cell-based
MV4-11 [7] = experiment: Upregulation of apoptosis pathway related protein expression in human MV4-11 cells by GO analysis; type: functional, cell-based
MV4-11 [8] = experiment: Upregulation of mTOR pathway related protein expression in human MV4-11 cells by GO analysis; type: functional, cell-based
MV4-11 [9] = experiment: Upregulation of ubiquitin-mediated proteolysis pathway related protein expression in human MV4-11 cells by GO analysis; type: functional, cell-based
MV4-11 [10] = experiment: Upregulation of mTOR pathway related protein expression in human MV4-11 cells by KEGG analysis; type: functional, cell-based
MV4-11 [11] = experiment: Upregulation of cell cycle signaling pathways related protein expression in human MV4-11 cells by KEGG analysis; type: functional, cell-based
MV4-11 [12] = experiment: Induction of apoptosis in human MV4-11 cells assessed as early apoptotic cells at 30 nM incubated for 24 hrs by Annexin V-FITC/PI dual staining based flow cytometric analysis (reference value: 3.42 %); type: functional
MV4-11 [13] = experiment: Induction of apoptosis in human MV4-11 cells assessed as late apoptotic cells at 30 nM incubated for 24 hrs by Annexin V-FITC/PI dual staining based flow cytometric analysis (reference value: 1.48 %); type: functional
MV4-11 [14] = experiment: Induction of apoptosis in human MV4-11 cells assessed as necrotic cells at 30 nM incubated for 24 hrs by Annexin V-FITC/PI dual staining based flow cytometric analysis (reference value: 0.16 %); type: functional
MV4-11 [15] = experiment: Induction of apoptosis in human MV4-11 cells assessed as early apoptotic cells at 100 nM incubated for 24 hrs by Annexin V-FITC/PI dual staining based flow cytometric analysis (reference value: 3.42 %); type: functional
MV4-11 [16] = experiment: Induction of apoptosis in human MV4-11 cells assessed as early apoptotic cells at 300 nM incubated for 24 hrs by Annexin V-FITC/PI dual staining based flow cytometric analysis (reference value: 3.42 %); type: functional
MV4-11 [17] = experiment: Induction of cell cycle arrest in human MV4-11 cells assessed as decrease in accumulation of cells at G2 phase incubated for 24 hrs by PI staining based flow cytometric analysis; type: functional; details: dose 30-300 µM
[18] = Cmax in male Sprague-Dawley rat at 20 mg/kg, po measured up to 24 hrs by LC-MS analysis; type: ADME, organism-based; details: in vivo
[19] = AUC (0 to t) in male Sprague-Dawley rat at 1 mg/kg, iv measured up to 24 hrs by LC-MS analysis; type: ADME, organism-based; details: in vivo
[20] = AUC (0 to t) in male Sprague-Dawley rat at 20 mg/kg, po measured up to 24 hrs by LC-MS analysis; type: ADME, organism-based; details: in vivo
[21] = Tmax in male Sprague-Dawley rat at 20 mg/kg, po measured up to 24 hrs by LC-MS analysis; type: ADME, organism-based; details: in vivo
[22] = Tmax in male Sprague-Dawley rat at 5 mg/kg, ip measured up to 24 hrs by LC-MS analysis; type: ADME, organism-based; details: in vivo
[23] = Half life in male Sprague-Dawley rat at 5 mg/kg, ip measured up to 24 hrs by LC-MS analysis; type: ADME, organism-based; details: in vivo
[24] = Clearance in male Sprague-Dawley rat at 1 mg/kg, iv measured up to 24 hrs by LC-MS analysis; type: ADME, organism-based; details: in vivo
[25] = Oral bioavailability in male Sprague-Dawley rat at 20 mg/kg measured up to 24 hrs by LC-MS analysis; type: ADME, organism-based; details: in vivo
Mus musculus [26] = experiment: In vivo induction of MNK2 degradation in human MV4-11 cells xenografted in nude female NSG mouse at 20 mg/kg, ip qd administrated for 16 days; type: functional, organism-based; details: time 16.0 day
[27] = Hepatotoxicity in nude female NSG mouse xenografted with human MV4-11 cells assessed as change in serum TBIL level at 20 mg/kg, ip qd administrated for 16 days; type: toxicity, organism-based; details: in vivo, 384 h, time 16 day
[28] = Hepatotoxicity in nude female NSG mouse xenografted with human MV4-11 cells assessed as change in serum ALP level at 20 mg/kg, ip qd administrated for 16 days; type: toxicity, organism-based; details: in vivo, 384 h, time 16 day
[29] = Hepatotoxicity in nude female NSG mouse xenografted with human MV4-11 cells assessed as change in serum TBA level at 20 mg/kg, ip qd administrated for 16 days; type: toxicity, organism-based; details: in vivo, 384 h, time 16 day
[30] = Toxicity in male ICR mouse assessed as histopathological change in heart at 100 mg/kg, ip measured after 14 days by hematoxylin and eosin staining based analysis; type: organism-based; details: in vivo, 336 h, time 14 day
[31] = Toxicity in male ICR mouse assessed as histopathological change in liver at 100 mg/kg, ip measured after 14 days by hematoxylin and eosin staining based analysis; type: organism-based; details: in vivo, 336 h, time 14 day
[32] = Toxicity in male ICR mouse assessed as histopathological change in spleen at 100 mg/kg, ip measured after 14 days by hematoxylin and eosin staining based analysis; type: organism-based; details: in vivo, 336 h, time 14 day
[33] = Toxicity in male ICR mouse assessed as change in serum ALT level at 100 mg/kg, ip measured after 14 days; type: organism-based; details: in vivo, 336 h, time 14 day
[34] = Toxicity in male ICR mouse assessed as change in serum DBIL level at 100 mg/kg, ip measured after 14 days; type: organism-based; details: in vivo, 336 h, time 14 day
[35] = Toxicity in male ICR mouse assessed as change in serum ALP level at 100 mg/kg, ip measured after 14 days; type: organism-based; details: in vivo, 336 h, time 14 day
[36] = Toxicity in male ICR mouse assessed as change in serum TBA level at 100 mg/kg, ip measured after 14 days; type: organism-based; details: in vivo, 336 h, time 14 day
[37] = Toxicity in male ICR mouse assessed as change in serum BUN level at 100 mg/kg, ip measured after 14 days; type: organism-based; details: in vivo, 336 h, time 14 day
[38] = Toxicity in male ICR mouse assessed as change in serum creatinine level at 100 mg/kg, ip measured after 14 days; type: organism-based; details: in vivo, 336 h, time 14 day
[39] = Toxicity in nude female NSG mouse xenografted with human MV4-11 cells assessed as change in serum uric acid level at 20 mg/kg, ip qd administrated for 16 days; type: organism-based; details: in vivo, 384 h, time 16 day
[40] = Toxicity in nude female NSG mouse xenografted with human MV4-11 cells assessed as change in serum creatinine level at 20 mg/kg, ip qd administrated for 16 days; type: organism-based; details: in vivo, 384 h, time 16 day

Which results are given for `O=C1CCC(N2Cc3c(NC(=O)CCCCCC(=O)N4CCC(C(=O)Nc5ncc(-c6ccccc6)s5)CC4)cccc3C2=O)C(=O)N1` (stereo not given)?
Activity (Mus musculus [1]): Active; Activity (Mus musculus [2]): Active; Activity (MV4-11 [3]): Active; Activity (MV4-11 [4]): No effect; Activity (MV4-11 [5]): Active; Activity (MV4-11 [6]): Active; Activity (MV4-11 [7]): Active; Activity (MV4-11 [8]): Active; Activity (MV4-11 [9]): Active; Activity (MV4-11 [10]): Active; Activity (MV4-11 [11]): Active; Activity (MV4-11 [12]): 6.46%; Activity (MV4-11 [13]): 7.49%; Activity (MV4-11 [14]): 0.27%; Activity (MV4-11 [15]): 14.1%; Activity (MV4-11 [16]): 28.6%; Activity (MV4-11 [17]): Dose-dependent-effect; Cmax [18]: 160 ng/mL; AUC(0-t) at 24 h [19]: 7020 ng·h/mL; AUC(0-t) at 24 h [20]: 2950 ng·h/mL; Tmax [21]: 1.4 h; Tmax [22]: 0.5 h; half-life [23]: 5.2 h; clearance [24]: 2.38 mL/min/kg; bioavailability [25]: 2.1%; Activity (Mus musculus [26]): inactive; Activity [27]: Non-toxic; Activity [28]: Non-toxic; Activity [29]: Non-toxic; Activity [30]: Non-toxic; Activity [31]: Non-toxic; Activity [32]: Non-toxic; Activity [33]: Non-toxic; Activity [34]: Non-toxic; Activity [35]: Non-toxic; Activity [36]: Non-toxic; Activity [37]: Non-toxic; Activity [38]: Non-toxic; Activity [39]: Non-toxic; Activity [40]: Non-toxic
